{"source": "paper PMC11607671", "about": "“Antiviral activity of cathelicidins against porcine epidemic diarrhea virus (PEDV): Mechanisms, and efficacy” (Virus Research, 2024)", "key": {"PEDV": {"system": "PEDV", "experiment": "Peptide-virus interaction assay with Capto Core 700 beads", "type": "cell-based, Porcine epidemic diarrhea virus", "conditions": "Fig. 8", "protocol": "In order to determine if CATH-B1 and LL-37 physically interact with PEDV, Capto Core 700 beads (GE Healthcare Life Sciences, Chicago, IL, USA) were used to selectively eliminate unbound AMPs. PEDV were pre-incubated with or without CATH-B1/LL-37 in Opti-MEM medium, and Capto Core 700 beads were added, followed by a 1 h incubation at 4 °C while slowly rotating. After centrifugation, supernatants were collected and applied to the cells. To make sure the AMP was removed effectively, we tested samples with peptides but no virus using the same process. The collected supernatants were used to inoculate cells, and the number of infected cells was determined using the described method.\nFig. 8 Interactions between CATH-B1 and LL-37 with PEDV. CATH-B1/LL-37 were pre-incubated with the virus, and subsequently, the peptide and virus were separated using Capto Core beads. The supernatant containing the separated virus was then employed to infect Vero cells. […] The data is presented as the mean ± SEM of three independent experiments in duplicate, each with triplicate samples. **** p < 0.0001."}, "Vero cells": {"system": "Vero cells", "experiment": "LDH release cytotoxicity assay", "type": "cell-based, African green monkey", "conditions": "0-10 µM AMPs in DMEM, 3 h and 24 h, LDH release relative to 1% Triton X-100 lysis, three independent experiments, Fig. 1A+B", "protocol": "Vero-mCeacam cells (Vero cells), derived from African green monkey kidney cells, were maintained in DMEM (Gibco, Thermo Fisher Scientific, Waltham, MA) supplemented with 10% FCS (Bodinco B.V., Alkmaar, The Netherlands) and 200 units/mL penicillin, and […] (P/S) (Gibco, Life Technologies Limited, Paisley, UK) at 37 °C and 5% CO2.\nTo assess the cytotoxicity of peptides, Vero cells were treated with AMPs (0 − 10 μM in DMEM) as outlined in paragraph 2.5. After 3 and 24 h of stimulation, the fraction of lactate dehydrogenase (LDH) released into the culture supernatant was measured using the Cyto Tox 96 nonradioactive cytotoxicity kit (Promega GmbH, Walldorf, Germany) according to the manufacturer's instructions, and expressed as a percentage of the maximum LDH release from cells, lysed by 1% Triton X-100 (Sigma-Aldrich, T8787, Darmstadt, Germany).\nFig. 1 The cytotoxicity of AMPs on Vero cells. Cells were incubated with 0 – 10 µM AMPs for either 3 h or 24 h A and B) LDH release assay, indicating cell membrane permeability after 3 and 24 h, respectively. C and D) WST assay, measuring cell metabolic activity after 3 and 24 h, respectively. ‘No peptide‘ represents cells incubated with only growth medium for the indicated times, serving as a control. P.C in the LDH assay are cells that have been lysed by the lysis buffer representing 100% release of intracellular LDH. […]"}, "PEDV-GFP": {"system": "PEDV-GFP", "experiment": "Pre-incubation (pre-treatment) antiviral assay", "type": "cell-based, Porcine epidemic diarrhea virus", "conditions": "Vero cells treated 3 h with AMPs (0-10 µM), washed, then infected with PEDV-GFP MOI 0.3 for 2 h; FC; Fig. 6B, C", "protocol": "The effect of AMPs on viral infectivity was also determined when they were added to Vero-cells before (pre-treatment) or after (post-treatment) infection. In the pre-treatment assay (Fig. 6A), Vero cells were treated with different concentrations of CATH-B1 and LL-37 peptides (ranging from 0 to 10 µM) for various durations (1, 2, 3, 4, and 24 h) at 37 °C. Subsequently, the cells were washed 2 times with PBS and infected with PEDV-GFP at an MOI of 0.3 for 2 h\nIn post-incubation assays (Fig. 7A), cells were initially exposed to the virus for 2 h, washed 2times with PBS and subsequently treated with AMPs for 3 h Both for pre- and post-infection assays, after the respective incubation periods, the cells were assessed using fluorescence microscopy and quantified using FC as described above.\nFig. 6 Effects of AMPs in pre-incubation assay. A) Experimental set-up of pre-incubation experiment. B) FC was employed to quantify the percentage of GFP-positive cells during pre-incubation. […] The reported values represent the mean ± SD derived from three independent experiments performed in triplicate. * p < 0.05; ** p < 0.01."}}}
{"sequence": "LLGDFFRKSKEKIGKEFKRIVQRIKDFLRNLVPRTES [LL-37, human cathelicidin antimicrobial peptide, 37 residues]", "values": [{"measurement": "virus infectivity, peptide pre-incubated with beads before PEDV introduction", "setting": "PEDV; Capto Core 700 beads, Vero cells", "result": "minimal effects on virus infectivity"}, {"measurement": "virus infectivity, peptide incubated with PEDV without beads", "setting": "PEDV; no Capto Core 700 beads, Vero cells", "result": "a decrease in virus infectivity"}, {"measurement": "antiviral activity when peptide is combined with virus and beads", "setting": "PEDV; peptide + PEDV, then Capto Core 700 beads 1 h at 4 °C, supernatant applied to Vero cells", "result": "lost its inhibitory effect"}, {"measurement": "cytotoxicity (LDH release)", "setting": "Vero cells", "result": "no toxic effects"}, {"measurement": "antiviral activity in pre-incubation assay, in words", "setting": "PEDV-GFP", "result": "potent inhibition of viral infection in Vero cells at all three concentrations"}]}
